According to ChEMBL document CHEMBL2346515, “Discovery of 4-alkylamino-7-aryl-3-cyanoquinoline LRRK2 kinase inhibitors” (Bioorg Med Chem Lett, 2013):

What was measured:
[1] = target: Calcium/calmodulin-dependent protein kinase type II subunit alpha (Homo sapiens) (UniProt Q9UQM7); test: Inhibition of CAMK2alpha (unknown origin) at 10 uM by single point assay
[2] = target: T1, Dual specificity protein kinase TTK (Homo sapiens) (UniProt P33981); test: Inhibition of TTK (unknown origin) at 10 uM by single point assay
T1 sequence (whole entry): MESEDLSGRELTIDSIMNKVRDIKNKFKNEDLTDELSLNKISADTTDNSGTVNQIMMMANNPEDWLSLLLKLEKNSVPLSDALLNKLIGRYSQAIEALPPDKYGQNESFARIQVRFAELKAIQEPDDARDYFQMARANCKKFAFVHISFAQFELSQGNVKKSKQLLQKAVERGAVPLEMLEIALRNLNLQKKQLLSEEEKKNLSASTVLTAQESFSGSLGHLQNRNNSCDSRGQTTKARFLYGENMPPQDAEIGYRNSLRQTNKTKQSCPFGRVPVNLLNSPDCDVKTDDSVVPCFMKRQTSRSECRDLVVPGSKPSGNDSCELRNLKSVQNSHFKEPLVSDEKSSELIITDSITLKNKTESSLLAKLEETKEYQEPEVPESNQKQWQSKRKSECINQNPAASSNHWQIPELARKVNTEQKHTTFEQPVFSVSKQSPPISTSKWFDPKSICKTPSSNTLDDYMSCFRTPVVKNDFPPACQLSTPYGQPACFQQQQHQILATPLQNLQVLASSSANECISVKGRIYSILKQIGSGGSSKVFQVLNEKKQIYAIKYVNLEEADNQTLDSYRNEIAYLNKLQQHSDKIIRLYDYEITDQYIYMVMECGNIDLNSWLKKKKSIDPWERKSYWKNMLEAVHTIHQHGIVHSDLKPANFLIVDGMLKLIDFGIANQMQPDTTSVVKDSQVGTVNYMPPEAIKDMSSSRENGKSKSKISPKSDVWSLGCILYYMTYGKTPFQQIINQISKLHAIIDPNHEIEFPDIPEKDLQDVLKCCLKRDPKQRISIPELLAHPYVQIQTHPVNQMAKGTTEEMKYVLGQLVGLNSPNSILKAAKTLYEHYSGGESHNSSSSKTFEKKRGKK

[3] = target: T2, Serine/threonine-protein kinase Chk1 (Homo sapiens) (UniProt O14757); test: Inhibition of CHK1 (unknown origin) at 10 uM by single point assay
T2 sequence (whole entry): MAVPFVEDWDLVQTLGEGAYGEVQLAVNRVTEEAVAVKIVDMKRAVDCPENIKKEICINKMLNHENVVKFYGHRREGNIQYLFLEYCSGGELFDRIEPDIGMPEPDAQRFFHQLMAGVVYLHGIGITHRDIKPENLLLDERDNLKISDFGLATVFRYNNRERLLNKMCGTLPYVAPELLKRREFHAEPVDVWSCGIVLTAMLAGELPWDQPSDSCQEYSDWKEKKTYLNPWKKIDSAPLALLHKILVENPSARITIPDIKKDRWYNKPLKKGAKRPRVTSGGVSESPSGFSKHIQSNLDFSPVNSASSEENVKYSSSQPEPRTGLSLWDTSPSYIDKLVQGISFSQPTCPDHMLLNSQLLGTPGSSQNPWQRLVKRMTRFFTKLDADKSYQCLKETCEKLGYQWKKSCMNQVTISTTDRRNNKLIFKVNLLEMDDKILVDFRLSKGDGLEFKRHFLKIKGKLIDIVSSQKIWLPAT

[4] = target: Protein-tyrosine kinase 2-beta (Homo sapiens) (UniProt Q14289); test: Inhibition of PTK2B (unknown origin) at 10 uM by single point assay
[5] = target: Serine/threonine-protein kinase PLK1 (Homo sapiens) (UniProt P53350); test: Inhibition of PLK1 (unknown origin) at 10 uM by single point assay
Sequence of Serine/threonine-protein kinase PLK1 (Homo sapiens) (P53350 whole entry): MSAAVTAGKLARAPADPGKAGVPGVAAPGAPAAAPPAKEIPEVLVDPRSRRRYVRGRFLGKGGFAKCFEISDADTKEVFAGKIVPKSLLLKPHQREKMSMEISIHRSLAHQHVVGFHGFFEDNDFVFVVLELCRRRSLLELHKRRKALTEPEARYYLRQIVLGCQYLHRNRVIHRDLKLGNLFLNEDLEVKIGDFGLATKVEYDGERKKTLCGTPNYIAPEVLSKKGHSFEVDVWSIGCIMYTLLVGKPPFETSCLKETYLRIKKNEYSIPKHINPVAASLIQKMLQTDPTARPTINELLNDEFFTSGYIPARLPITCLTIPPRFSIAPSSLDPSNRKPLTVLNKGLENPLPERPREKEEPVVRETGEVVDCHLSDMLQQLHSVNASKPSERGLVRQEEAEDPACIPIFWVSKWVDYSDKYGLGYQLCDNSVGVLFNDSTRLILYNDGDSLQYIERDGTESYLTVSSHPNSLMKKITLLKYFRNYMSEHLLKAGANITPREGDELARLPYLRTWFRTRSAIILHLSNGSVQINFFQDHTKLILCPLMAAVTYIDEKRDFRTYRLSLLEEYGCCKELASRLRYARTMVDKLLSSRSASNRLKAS

[6] = target: Platelet-derived growth factor receptor alpha (Homo sapiens) (UniProt P16234); test: Inhibition of PDGFRalpha (unknown origin) at 10 uM by single point assay
Sequence of Platelet-derived growth factor receptor alpha (Homo sapiens) (P16234 whole entry): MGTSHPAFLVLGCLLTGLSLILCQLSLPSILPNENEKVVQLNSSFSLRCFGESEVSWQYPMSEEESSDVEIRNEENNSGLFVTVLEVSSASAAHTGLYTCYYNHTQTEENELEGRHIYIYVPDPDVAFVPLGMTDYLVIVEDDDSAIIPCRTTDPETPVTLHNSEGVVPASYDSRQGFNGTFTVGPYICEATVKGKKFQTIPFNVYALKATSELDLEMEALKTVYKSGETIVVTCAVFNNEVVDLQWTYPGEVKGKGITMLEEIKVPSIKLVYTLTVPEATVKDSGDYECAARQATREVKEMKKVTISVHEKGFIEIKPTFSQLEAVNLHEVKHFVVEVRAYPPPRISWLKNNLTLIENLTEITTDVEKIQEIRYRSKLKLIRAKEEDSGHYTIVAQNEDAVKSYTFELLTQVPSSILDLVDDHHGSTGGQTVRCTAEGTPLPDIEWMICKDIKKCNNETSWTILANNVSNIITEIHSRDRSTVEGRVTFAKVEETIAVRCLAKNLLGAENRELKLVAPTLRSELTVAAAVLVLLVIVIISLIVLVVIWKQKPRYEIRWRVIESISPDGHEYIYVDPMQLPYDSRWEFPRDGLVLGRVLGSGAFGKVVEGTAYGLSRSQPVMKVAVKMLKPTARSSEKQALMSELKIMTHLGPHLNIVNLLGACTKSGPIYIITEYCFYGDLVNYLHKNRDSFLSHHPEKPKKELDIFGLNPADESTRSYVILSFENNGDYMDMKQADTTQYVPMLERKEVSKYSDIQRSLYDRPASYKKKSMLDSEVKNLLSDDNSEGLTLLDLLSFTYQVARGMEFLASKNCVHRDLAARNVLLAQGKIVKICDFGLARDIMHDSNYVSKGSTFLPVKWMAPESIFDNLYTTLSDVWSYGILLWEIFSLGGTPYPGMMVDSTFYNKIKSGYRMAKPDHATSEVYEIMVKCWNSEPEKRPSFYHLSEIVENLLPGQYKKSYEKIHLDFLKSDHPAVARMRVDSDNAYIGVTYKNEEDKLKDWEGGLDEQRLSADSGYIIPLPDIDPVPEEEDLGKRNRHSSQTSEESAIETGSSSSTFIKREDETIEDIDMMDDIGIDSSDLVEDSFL

[7] = target: Protein kinase C beta type (Homo sapiens) (UniProt P05771); test: Inhibition of PKCbeta1 (unknown origin) at 10 uM by single point assay
Sequence of Protein kinase C beta type (Homo sapiens) (P05771 2-671 limits assumed): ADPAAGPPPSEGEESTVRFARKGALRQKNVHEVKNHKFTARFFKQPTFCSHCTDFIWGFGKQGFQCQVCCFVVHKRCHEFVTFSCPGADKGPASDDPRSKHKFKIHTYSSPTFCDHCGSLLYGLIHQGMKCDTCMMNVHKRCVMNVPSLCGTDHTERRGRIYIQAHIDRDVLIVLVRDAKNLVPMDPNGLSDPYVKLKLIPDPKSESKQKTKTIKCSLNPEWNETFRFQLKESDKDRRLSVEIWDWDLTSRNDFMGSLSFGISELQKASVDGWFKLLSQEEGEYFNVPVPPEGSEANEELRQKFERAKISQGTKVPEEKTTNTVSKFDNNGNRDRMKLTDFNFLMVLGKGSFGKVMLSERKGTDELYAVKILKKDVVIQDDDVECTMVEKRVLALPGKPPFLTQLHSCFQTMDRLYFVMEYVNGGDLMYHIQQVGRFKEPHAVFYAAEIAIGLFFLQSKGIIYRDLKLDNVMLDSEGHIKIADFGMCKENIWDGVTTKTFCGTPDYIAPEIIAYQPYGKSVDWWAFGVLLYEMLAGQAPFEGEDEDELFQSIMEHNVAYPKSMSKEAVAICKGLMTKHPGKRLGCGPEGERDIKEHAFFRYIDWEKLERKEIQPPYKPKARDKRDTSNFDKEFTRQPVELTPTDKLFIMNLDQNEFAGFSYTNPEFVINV

[8] = target: RAF proto-oncogene serine/threonine-protein kinase (Homo sapiens) (UniProt P04049); test: Inhibition of RAF1 (unknown origin) at 10 uM by single point assay
[9] = target: RAC-alpha serine/threonine-protein kinase (Homo sapiens) (UniProt P31749); test: Inhibition of AKT1 (unknown origin) at 10 uM by single point assay
Sequence of RAC-alpha serine/threonine-protein kinase (Homo sapiens) (P31749 whole entry): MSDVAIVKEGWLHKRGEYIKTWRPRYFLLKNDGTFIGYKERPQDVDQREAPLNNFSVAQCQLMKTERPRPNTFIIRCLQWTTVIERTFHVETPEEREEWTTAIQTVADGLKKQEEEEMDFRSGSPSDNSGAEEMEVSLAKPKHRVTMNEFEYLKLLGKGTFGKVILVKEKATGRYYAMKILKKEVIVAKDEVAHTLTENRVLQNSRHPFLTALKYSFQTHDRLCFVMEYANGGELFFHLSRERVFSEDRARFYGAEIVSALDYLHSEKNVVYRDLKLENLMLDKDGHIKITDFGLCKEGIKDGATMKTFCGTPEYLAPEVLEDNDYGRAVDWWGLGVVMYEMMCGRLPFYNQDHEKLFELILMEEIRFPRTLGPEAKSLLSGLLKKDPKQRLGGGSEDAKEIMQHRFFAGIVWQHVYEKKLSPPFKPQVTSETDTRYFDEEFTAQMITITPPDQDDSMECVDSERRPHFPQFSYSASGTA

[10] = target: Cyclin-dependent kinase 1/cyclin B1 (Homo sapiens) (UniProt P06493+P14635); test: Inhibition of CDK1/cyclin B (unknown origin) at 10 uM by single point assay; assay type: protein-complex assay
Sequence of Cyclin-dependent kinase 1/cyclin B1 (Homo sapiens) (P06493 whole entry, looked up): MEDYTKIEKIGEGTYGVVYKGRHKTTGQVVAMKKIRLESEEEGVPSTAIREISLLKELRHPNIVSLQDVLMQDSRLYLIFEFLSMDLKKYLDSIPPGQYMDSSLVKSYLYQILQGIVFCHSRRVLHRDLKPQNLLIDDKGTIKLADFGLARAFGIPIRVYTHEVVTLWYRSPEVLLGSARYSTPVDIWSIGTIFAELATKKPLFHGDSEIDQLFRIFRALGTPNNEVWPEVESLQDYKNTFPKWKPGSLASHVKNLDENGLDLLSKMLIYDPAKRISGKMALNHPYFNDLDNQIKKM
Sequence of Cyclin-dependent kinase 1/cyclin B1 (Homo sapiens) (P14635 whole entry, looked up): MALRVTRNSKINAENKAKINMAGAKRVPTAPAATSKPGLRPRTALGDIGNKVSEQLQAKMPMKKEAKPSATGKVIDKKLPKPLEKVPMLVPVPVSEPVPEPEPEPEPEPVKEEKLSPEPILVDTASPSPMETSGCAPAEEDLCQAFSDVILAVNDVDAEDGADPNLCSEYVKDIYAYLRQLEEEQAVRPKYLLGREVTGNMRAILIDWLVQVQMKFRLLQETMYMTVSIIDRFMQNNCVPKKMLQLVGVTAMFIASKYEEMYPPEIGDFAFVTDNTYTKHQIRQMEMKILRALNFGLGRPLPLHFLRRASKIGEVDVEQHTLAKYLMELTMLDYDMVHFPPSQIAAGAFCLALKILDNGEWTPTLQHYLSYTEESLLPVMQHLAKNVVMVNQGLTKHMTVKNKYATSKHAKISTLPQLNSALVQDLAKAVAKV

[11] = target: Serine/threonine-protein kinase PAK 4 (Homo sapiens) (UniProt O96013); test: Inhibition of PAK4 (unknown origin) at 10 uM by single point assay
Sequence of Serine/threonine-protein kinase PAK 4 (Homo sapiens) (O96013 whole entry, looked up): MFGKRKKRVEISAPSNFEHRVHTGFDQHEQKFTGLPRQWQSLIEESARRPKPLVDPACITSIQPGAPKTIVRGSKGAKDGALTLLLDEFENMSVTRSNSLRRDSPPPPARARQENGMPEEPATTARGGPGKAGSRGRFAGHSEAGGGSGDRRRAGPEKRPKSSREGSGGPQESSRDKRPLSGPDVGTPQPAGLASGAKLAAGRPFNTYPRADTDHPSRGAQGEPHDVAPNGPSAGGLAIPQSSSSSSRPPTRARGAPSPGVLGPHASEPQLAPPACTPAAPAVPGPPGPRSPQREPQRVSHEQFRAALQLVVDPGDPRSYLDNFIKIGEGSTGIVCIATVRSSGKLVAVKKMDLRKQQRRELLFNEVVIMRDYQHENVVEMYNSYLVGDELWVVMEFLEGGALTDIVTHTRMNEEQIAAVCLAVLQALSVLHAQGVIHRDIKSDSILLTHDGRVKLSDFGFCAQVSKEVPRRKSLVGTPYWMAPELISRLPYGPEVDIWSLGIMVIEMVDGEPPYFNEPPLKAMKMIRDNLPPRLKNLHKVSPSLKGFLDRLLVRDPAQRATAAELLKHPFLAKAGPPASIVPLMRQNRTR

[12] = target: Rho-associated protein kinase 2 (Homo sapiens) (UniProt O75116); test: Inhibition of ROCK2 (unknown origin) at 10 uM by single point assay
[13] = target: Serine/threonine-protein kinase PLK2 (Homo sapiens) (UniProt Q9NYY3); test: Inhibition of PLK2 (unknown origin) at 10 uM by single point assay
Sequence of Serine/threonine-protein kinase PLK2 (Homo sapiens) (Q9NYY3 whole entry, looked up): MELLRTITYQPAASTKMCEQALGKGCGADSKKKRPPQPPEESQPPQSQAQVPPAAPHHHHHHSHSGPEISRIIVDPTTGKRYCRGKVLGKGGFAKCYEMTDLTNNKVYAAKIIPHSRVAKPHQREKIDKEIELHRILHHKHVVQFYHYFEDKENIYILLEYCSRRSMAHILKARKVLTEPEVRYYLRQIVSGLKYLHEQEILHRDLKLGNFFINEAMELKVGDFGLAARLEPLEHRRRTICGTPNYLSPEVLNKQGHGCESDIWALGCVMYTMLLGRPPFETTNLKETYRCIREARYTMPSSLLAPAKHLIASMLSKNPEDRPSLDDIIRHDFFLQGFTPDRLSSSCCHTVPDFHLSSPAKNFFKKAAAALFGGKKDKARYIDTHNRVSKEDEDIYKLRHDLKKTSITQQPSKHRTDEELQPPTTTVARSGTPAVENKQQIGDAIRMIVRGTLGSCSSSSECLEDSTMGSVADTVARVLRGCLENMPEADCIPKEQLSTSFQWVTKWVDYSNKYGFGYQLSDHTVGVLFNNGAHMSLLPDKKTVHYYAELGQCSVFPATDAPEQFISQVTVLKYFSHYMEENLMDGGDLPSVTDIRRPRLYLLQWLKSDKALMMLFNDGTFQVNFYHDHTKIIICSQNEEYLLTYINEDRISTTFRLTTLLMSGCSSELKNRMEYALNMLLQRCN

[14] = target: Serine/threonine-protein kinase PLK3 (Homo sapiens) (UniProt Q9H4B4); test: Inhibition of PLK3 (unknown origin) at 10 uM by single point assay
[15] = target: T3, Interleukin-1 receptor-associated kinase 4 (Homo sapiens) (UniProt Q9NWZ3); test: Inhibition of IRAK4 (unknown origin) at 10 uM by single point assay
T3 sequence (whole entry): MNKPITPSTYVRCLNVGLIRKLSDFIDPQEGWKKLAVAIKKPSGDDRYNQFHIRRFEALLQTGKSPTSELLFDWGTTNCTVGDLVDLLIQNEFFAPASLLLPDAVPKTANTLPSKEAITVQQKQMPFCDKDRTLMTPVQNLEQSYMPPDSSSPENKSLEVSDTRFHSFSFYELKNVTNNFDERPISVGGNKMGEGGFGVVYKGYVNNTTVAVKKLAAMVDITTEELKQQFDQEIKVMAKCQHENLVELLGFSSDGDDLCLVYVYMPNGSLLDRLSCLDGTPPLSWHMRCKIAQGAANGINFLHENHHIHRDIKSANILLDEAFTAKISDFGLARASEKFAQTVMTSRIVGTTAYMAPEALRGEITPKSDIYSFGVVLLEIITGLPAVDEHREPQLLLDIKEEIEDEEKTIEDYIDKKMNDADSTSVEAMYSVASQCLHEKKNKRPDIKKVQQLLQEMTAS

[16] = system: Plasma; test: Plasma concentration in mouse expressing mouse LRRK2 G2019S mutant at 100 mg/kg, po; assay type: ADME, organism-based; parameters: dose 100 mg/kg, route oral; conditions: in vivo
[17] = system: Mus musculus; test: In vivo inhibition of mouse LRRK2 G2019S mutant phosphorylation at Ser935 expressed in mouse brain at 100 mg/kg, po measured after 3 hrs by ELISA; assay type: functional
[18] = Ratio of drug uptake in brain to plasma of mouse expressing mouse LRRK2 G2019S mutant at 100 mg/kg, po; assay type: ADME, organism-based; parameters: dose 100 mg/kg, route oral; conditions: read-out: BPR

inhibition [1] [%] | inhibition [2] [%] | inhibition [3] [%] | inhibition [4] [%] | inhibition [5] [%] | inhibition [6] [%] | inhibition [7] [%] | inhibition [8] [%] | inhibition [9] [%] | inhibition [10] [%] | inhibition [11] [%] | inhibition [12] [%] | inhibition [13] [%] | inhibition [14] [%] | inhibition [15] [%] | Cp [16] [ng/mL] | Kp [18] | SMILES | inhibition in vivo at 100 mg/kg [17] [%]
30 | 11 | 31 | 16 | 8 | 5 | -2 | 6 | -2 | 12 | 19 | 16 | 54 | 6 | 10 |  |  | C[C@@H](Nc1c(C#N)cnc2cc(-c3ccc(-n4ccoc4=O)cc3)ccc12)C1CC1 | 
 |  |  |  |  |  |  |  |  |  |  |  |  |  |  | 31.8 | 2.1 | CC(C)Nc1c(C#N)cnc2cc(-c3cnn(C)c3)ccc12 | 44
